Results from patent US20240002401A1, “IMIDAZOTHIAZOLE COMPOUNDS, PHARMACEUTICAL COMPOSITIONS, AND USES THEREOF” (GUANGZHOU HENOVCOM BIOSCIENCE CO., LTD., priority 2020, published 2024).

Biological target: ATX (Homo sapiens, UniProt Q13822)
Assay: Enzyme activity screening in vitro with LPC as substrate (Amplex Red fluorescence)
Format: biochemical
Conditions: inhibitory activity against ATX
Text: Analysis In Vitro: LPC was Used as Substrate for Screening Enzyme Activity
Principle: Lysophosphatidylcholine (LPC) as substrate is hydrolyzed by using the activity of lysoPLD enzyme, to produce lysophosphatidic acid (LPA) and choline, which is oxidized to produce H2O2 under the action of choline oxidase. In presence of horse radish peroxidase (HPR), Amplex Red reagent is reacted with H2O2 in a quantitative chemistry ratio of 1 to 1, to produce strong fluorescence products, which are detected by a fluorescent quantitative test.
20 μl of the above mixed solution 1 was added to each hole of an experiment board, […]. The compounds diluted with DMSO were transferred into an experiment board with Echo550. The reaction buffer solution was used for preparing a mixed solution 2 of […] LPC and 400 μM Amplex Red in a final concentration. 20 μl of the above mixed solution 2 was added to each hole of the experiment board. After addition, the experiment board was shook for 30 seconds on a shaker, and incubated for 30 minutes. Envision was used to read the fluorescence signals with an exciting light at 530 nm and emitted light at 590 nm.

Row | IC50 [nM] | Structure (SMILES)
1 | 100 to 500 | CCc1nc2sc(C3CCN(CC(=O)NCCO)CC3)cn2c1N(CC)c1nc(-c2ccc(F)cc2)c(C#N)s1 [Embodiment 3, 2-(4-(5-((5-cyano-4-(4-fluorophenyl)thiazol-2-yl)(ethyl)amino)-6-ethylimidazo[2,1-b]thiazol-2-yl]piperidin-1-yl)-N-(2-hydroxyethyl)acetamide]
2 | 0.01 to 100 | CCc1nc2sc(C3CCN(CC(=O)N(C)CCO)CC3)cn2c1N(CC)c1nc(-c2ccc(F)cc2)c(C#N)s1 [Embodiment 4, 2-(4-(5-((5-cyano-4-(4-fluorophenyl)thiazol-2-yl)(ethyl)amino)-6-ethylimidazo[2,1-b]thiazol-2-yl]piperidin-1-yl)-N-(2-hydroxyethyl)-N-methylacetamide]
3 | 0.01 to 100 | CCc1nc2sc(C3CCN(CC(=O)NC4CC(O)C4)CC3)cn2c1N(CC)c1nc(-c2ccc(F)cc2)c(C#N)s1 (centres unmarked) [Embodiment 5, 2-(4-(5-((5-cyano-4-(4-fluorophenyl)thiazol-2-yl)(ethyl)amino)-6-ethylimidazo[2,1-b]thiazol-2-yl]piperidin-1-yl)-N-(3-hydroxycyclobutyl)acetamide]
4 | 0.01 to 100 | CCc1nc2sc(C3CCN(CC(=O)N4CC(O)C4)CC3)cn2c1N(CC(F)(F)F)c1nc(-c2ccc(F)cc2)c(C#N)s1 [Embodiment 6, 2-((6-ethyl-2-(1-(2-(3-hydroxyazetidin-1-yl)-2-oxoethyl)piperidin-4-yl)imidazo[2,1-b]thiazol-5-yl)(2,2,2,-trifluoroethyl)amino)-4-(4-fluorophenyl)thiazole-5-carbonitrile]
5 | 0.01 to 100 | CCc1nc2sc(C3CCN(CC(=O)NCC(C)(C)O)CC3)cn2c1N(CC)c1nc(-c2ccc(F)cc2)c(C#N)s1 [Embodiment 8, 2-(4-(5-((5-cyano-4-(4-fluorophenyl)thiazol-2-yl)(ethyl)amino)-6-ethylimidazo[2,1-b]thiazol-2-yl)piperidin-1-yl)-N-(2-hydroxy-2-methylpropyl)acetamide]
6 | 0.01 to 100 | CCc1nc2sc(C3CCN(CC(=O)NCC(C)(C)CO)CC3)cn2c1N(CC)c1nc(-c2ccc(F)cc2)c(C#N)s1 [Embodiment 9, 2-(4-(5-((5-cyano-4-(4-fluorophenyl)thiazol-2-yl)(ethyl)amino)-6-ethylimidazo[2,1-b]thiazol-2-yl)piperidin-1-yl)-N-(3-hydroxy-2,2-dimethylpropyl)acetamide]
7 | 0.01 to 100 | CCc1nc2sc(C3CCN(CC(=O)N(C)CCC#N)CC3)cn2c1N(CC)c1nc(-c2ccc(F)cc2)c(C#N)s1 [Embodiment 10, 2-(4-(5-((5-cyano-4-(4-fluorophenyl)thiazol-2-yl)(ethyl)amino)-6-ethylimidazo[2,1-b]thiazol-2-yl)piperidin-1-yl)-N-(2-cyanoethyl)-N-methylacetamide]
8 | 0.01 to 100 | CCc1nc2sc(C3CCN(CC(=O)NC4(CO)CC4)CC3)cn2c1N(CC)c1nc(-c2ccc(F)cc2)c(C#N)s1 [Embodiment 12, 2-(4-(5-((5-cyano-4-(4-fluorophenyl)thiazol-2-yl)(ethyl)amino)-6-ethylimidazo[2,1-b]thiazol-2-yl)piperidin-1-yl)-N-(1-(hydroxymethyl)cyclopropyl)acetamide]
9 | 100 to 500 | CCc1nc2sc(C3CCN(CC(=O)NC(C)CO)CC3)cn2c1N(CC)c1nc(-c2ccc(F)cc2)c(C#N)s1 (centres unmarked) [Embodiment 13, 2-(4-(5-((5-cyano-4-(4-fluorophenyl)thiazol-2-yl)(ethyl)amino)-6-ethylimidazo[2,1-b]thiazol-2-yl)piperidin-1-yl)-N-(1-hydroxypropan-2-yl)acetamide]
10 | 0.01 to 100 | CCc1nc2sc(C3CCN(CC(=O)NC(C)(C)CO)CC3)cn2c1N(CC)c1nc(-c2ccc(F)cc2)c(C#N)s1 [Embodiment 14, 2-(4-(5-((5-cyano-4-(4-fluorophenyl)thiazol-2-yl)(ethyl)amino)-6-ethylimidazo[2,1-b]thiazol-2-yl)piperidin-1-yl)-N-(1-hydroxy-2-methylpropan-2-yl)acetamide]
11 | 100 to 500 | CCc1nc2sc(C3CCN(CC(=O)NCC4(O)CC4)CC3)cn2c1N(CC)c1nc(-c2ccc(F)cc2)c(C#N)s1 [Embodiment 15, 2-(4-(5-((5-cyano-4-(4-fluorophenyl)thiazol-2-yl)(ethyl)amino)-6-ethylimidazo[2,1-b]thiazol-2-yl)piperidin-1-yl)-N-((1-hydroxycyclopropyl)methyl)acetamide]
12 | 0.01 to 100 | CCc1nc2sc(C3CCN(CC(=O)NCC4(O)CCC4)CC3)cn2c1N(CC)c1nc(-c2ccc(F)cc2)c(C#N)s1 [Embodiment 16, 2-(4-(5-((5-cyano-4-(4-fluorophenyl)thiazol-2-yl)(ethyl)amino)-6-ethylimidazo[2,1-b]thiazol-2-yl)piperidin-1-yl)-N-((1-hydroxycyclobutyl)methyl) acetamide]
13 | 100 to 500 | CCc1nc2sc(C3CCN(CC(=O)NC4CC(F)(F)C4)CC3)cn2c1N(CC)c1nc(-c2ccc(F)cc2)c(C#N)s1 [Embodiment 17, 2-(4-(5-((5-cyano-4-(4-fluorophenyl)thiazol-2-yl)(ethyl)amino)-6-ethylimidazo[2,1-b]thiazol-2-yl)piperidin-1-yl)-N-(3,3-difluorocyclobutyl)acetamide]
14 | 100 to 500 | CCc1nc2sc(C3CCN(CC(=O)NCC4CC4)CC3)cn2c1N(CC)c1nc(-c2ccc(F)cc2)c(C#N)s1 [Embodiment 18, 2-(4-(5-((5-cyano-4-(4-fluorophenyl)thiazol-2-yl)(ethyl)amino)-6-ethylimidazo[2,1-b]thiazol-2-yl)piperidin-1-yl)-N-(cyclopropylmethyl)acetamide]
15 | 0.01 to 100 | CCc1nc2sc(C3CCN(CC(=O)NCC4CCC4)CC3)cn2c1N(CC)c1nc(-c2ccc(F)cc2)c(C#N)s1 [Embodiment 19, 2-(4-(5-((5-cyano-4-(4-fluorophenyl)thiazol-2-yl)(ethyl)amino)-6-ethylimidazo[2,1-b]thiazol-2-yl)piperidin-1-yl)-N-(cyclobutylmethyl)acetamide]
16 | 0.01 to 100 | CCc1nc2sc(C3CCN(CC(=O)NC4CCOCC4)CC3)cn2c1N(c1nc(-c2ccc(F)cc2)c(C#N)s1)C(C)C [Embodiment 26, 2-(4-(5-((5-cyano-4-(4-fluorophenyl)thiazol-2-yl)(isopropyl)amino)-6-ethylimidazo[2,1-b]thiazol-2-yl)piperidin-1-yl)-N-(tetrahydro-2H-pyran-4-yl)acetamide]
17 | 0.01 to 100 | CCc1nc2sc(C3CCN(CC(=O)NC4COC4)CC3)cn2c1N(c1nc(-c2ccc(F)cc2)c(C#N)s1)C(C)C [Embodiment 27, 2-(4-(5-((5-cyano-4-(4-fluorophenyl)thiazol-2-yl)(isopropyl)amino)-6-ethylimidazo[2,1-b]thiazol-2-yl)piperidin-1-yl)-N-(oxacyclobut-3-yl)acetamide]
